Assays:
[1] = molecular target: Tyrosine-protein kinase CSK (Homo sapiens) (UniProt P41240); assay: Inhibition of full length human N-terminal GST-tagged CSK (1 to 450 residues) expressed in baculovirus expression system using fluorescence labelled srctide as substrate at 50 times IC50 by electrophoretic mobility shift assay relative to control
[2] = molecular target: Death-associated protein kinase 1 (Homo sapiens) (UniProt P53355); assay: Inhibition of human N-terminal GST-tagged DAPK1 catalytic domain (1 to 289 residues) expressed in baculovirus expression system using fluorescence labelled DAPK1tide as substrate at 50 times IC50 by electrophoretic mobility shift assay relative to control
[3] = molecular target: Protein-tyrosine kinase 2-beta (Homo sapiens) (UniProt Q14289); assay: Inhibition of full length human N-terminal GST-tagged PYK2 (1 to 967 residues) expressed in baculovirus expression system using fluorescence labelled Blk/Lyntide as substrate at 50 times IC50 by electrophoretic mobility shift assay relative to control
[4] = molecular target: Epidermal growth factor receptor (Homo sapiens) (UniProt P00533); assay: Inhibition of human N-terminal GST-tagged EGFR cytoplasmic domain (669 to 1210 residues) expressed in baculovirus expression system using fluorescence labelled srctide as substrate at 50 times IC50 by electrophoretic mobility shift assay relative to control
[5] = molecular target: T1, Inhibitor of nuclear factor kappa-B kinase subunit beta (Homo sapiens) (UniProt O14920); assay: Inhibition of human N-terminal His-tagged IKKbeta (1 to 662 residues) expressed in baculovirus expression system using fluorescence labelled modified IKBalpha derived peptide substrate at 50 times IC50 by electrophoretic mobility shift assay relative to control
T1 sequence (whole entry): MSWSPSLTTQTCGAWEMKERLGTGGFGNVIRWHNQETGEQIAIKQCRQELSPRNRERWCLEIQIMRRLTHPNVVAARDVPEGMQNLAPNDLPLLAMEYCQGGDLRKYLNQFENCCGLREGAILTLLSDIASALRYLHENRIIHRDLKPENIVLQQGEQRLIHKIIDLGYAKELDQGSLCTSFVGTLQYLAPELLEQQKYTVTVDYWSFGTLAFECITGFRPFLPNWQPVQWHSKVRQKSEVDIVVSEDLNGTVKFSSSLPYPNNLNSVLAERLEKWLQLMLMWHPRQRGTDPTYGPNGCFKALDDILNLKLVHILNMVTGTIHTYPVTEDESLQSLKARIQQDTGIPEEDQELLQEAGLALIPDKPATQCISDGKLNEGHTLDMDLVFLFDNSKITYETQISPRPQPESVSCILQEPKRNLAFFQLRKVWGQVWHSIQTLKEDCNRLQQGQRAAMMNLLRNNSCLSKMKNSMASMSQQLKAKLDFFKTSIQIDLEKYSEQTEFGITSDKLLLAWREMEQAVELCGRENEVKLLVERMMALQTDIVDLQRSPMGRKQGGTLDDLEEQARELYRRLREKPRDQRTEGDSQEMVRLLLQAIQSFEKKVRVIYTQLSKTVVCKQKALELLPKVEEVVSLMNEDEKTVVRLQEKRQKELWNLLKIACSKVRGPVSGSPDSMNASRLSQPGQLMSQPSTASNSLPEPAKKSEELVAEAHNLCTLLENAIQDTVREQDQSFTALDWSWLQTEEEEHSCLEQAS

[6] = molecular target: Ephrin type-A receptor 2 (Homo sapiens) (UniProt P29317); assay: Inhibition of human N-terminal GST-tagged EPHA2 cytoplasmic domain (572 to 976 residues) expressed in baculovirus expression system using fluorescence labelled Blk/Lyntide as substrate at 50 times IC50 by electrophoretic mobility shift assay relative to control
[7] = molecular target: RAC-alpha serine/threonine-protein kinase (Homo sapiens) (UniProt P31749); assay: Inhibition of human N-terminal GST-tagged AKT1 catalytic domain (104 to 480 residues) expressed in baculovirus expression system using fluorescence labelled crosstide as substrate at 50 times IC50 by electrophoretic mobility shift assay relative to control
[8] = molecular target: Mitogen-activated protein kinase 1 (Homo sapiens) (UniProt P28482); assay: Inhibition of full length human N-terminal GST-tagged ERK2 (1 to 360 residues) expressed in Escherichia coli using fluorescence labelled modified Erktide as substrate at 50 times IC50 by electrophoretic mobility shift assay relative to control
[9] = molecular target: [Pyruvate dehydrogenase (acetyl-transferring)] kinase isozyme 1, mitochondrial (Homo sapiens) (UniProt Q15118); assay: Inhibition of full length human N-terminal GST-tagged PDK1 (1 to 436 residues) expressed in baculovirus expression system using fluorescence labelled PDHKtide as substrate at 50 times IC50 by electrophoretic mobility shift assay relative to control
[10] = molecular target: Platelet-derived growth factor receptor alpha (Homo sapiens) (UniProt P16234); assay: Inhibition of human N-terminal GST-tagged PDGFRalpha cytoplasmic domain (550 to 1089 residues) expressed in baculovirus expression system using fluorescence labelled CSKtide as substrate at 50 times IC50 by electrophoretic mobility shift assay relative to control
[11] = molecular target: T2, Tyrosine-protein kinase receptor TYRO3 (Homo sapiens) (UniProt Q06418); assay: Inhibition of human N-terminal GST-tagged TYRO3 cytoplasmic domain (453 to 890 residues) expressed in baculovirus expression system using fluorescence labelled CSKtide as substrate at 50 times IC50 by electrophoretic mobility shift assay relative to control
T2 sequence (whole entry): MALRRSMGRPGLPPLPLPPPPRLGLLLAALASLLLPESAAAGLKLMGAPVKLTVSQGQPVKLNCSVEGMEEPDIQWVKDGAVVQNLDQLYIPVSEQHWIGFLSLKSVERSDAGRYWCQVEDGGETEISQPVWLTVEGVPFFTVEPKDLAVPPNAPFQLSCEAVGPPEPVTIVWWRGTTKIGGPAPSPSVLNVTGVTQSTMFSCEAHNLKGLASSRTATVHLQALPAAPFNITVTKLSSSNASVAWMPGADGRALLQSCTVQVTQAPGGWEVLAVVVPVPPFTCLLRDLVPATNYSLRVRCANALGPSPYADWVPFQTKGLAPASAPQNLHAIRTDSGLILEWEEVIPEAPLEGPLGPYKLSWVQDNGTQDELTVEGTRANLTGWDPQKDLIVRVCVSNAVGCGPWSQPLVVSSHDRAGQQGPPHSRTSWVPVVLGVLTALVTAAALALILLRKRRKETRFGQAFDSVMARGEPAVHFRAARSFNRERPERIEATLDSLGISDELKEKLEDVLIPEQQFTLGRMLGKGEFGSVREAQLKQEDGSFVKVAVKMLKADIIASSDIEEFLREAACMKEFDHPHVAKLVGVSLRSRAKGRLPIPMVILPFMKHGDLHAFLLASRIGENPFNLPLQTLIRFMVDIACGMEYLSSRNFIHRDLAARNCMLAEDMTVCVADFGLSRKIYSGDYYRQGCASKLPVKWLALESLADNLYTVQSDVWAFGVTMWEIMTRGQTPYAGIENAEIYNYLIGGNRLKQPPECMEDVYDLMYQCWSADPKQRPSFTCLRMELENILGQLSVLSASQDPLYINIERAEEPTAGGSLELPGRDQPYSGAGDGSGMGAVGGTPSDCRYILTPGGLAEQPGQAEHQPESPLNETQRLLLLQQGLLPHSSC

Sequence of Protein-tyrosine kinase 2-beta (Homo sapiens) (Q14289 whole entry, looked up, the tested form may be a part): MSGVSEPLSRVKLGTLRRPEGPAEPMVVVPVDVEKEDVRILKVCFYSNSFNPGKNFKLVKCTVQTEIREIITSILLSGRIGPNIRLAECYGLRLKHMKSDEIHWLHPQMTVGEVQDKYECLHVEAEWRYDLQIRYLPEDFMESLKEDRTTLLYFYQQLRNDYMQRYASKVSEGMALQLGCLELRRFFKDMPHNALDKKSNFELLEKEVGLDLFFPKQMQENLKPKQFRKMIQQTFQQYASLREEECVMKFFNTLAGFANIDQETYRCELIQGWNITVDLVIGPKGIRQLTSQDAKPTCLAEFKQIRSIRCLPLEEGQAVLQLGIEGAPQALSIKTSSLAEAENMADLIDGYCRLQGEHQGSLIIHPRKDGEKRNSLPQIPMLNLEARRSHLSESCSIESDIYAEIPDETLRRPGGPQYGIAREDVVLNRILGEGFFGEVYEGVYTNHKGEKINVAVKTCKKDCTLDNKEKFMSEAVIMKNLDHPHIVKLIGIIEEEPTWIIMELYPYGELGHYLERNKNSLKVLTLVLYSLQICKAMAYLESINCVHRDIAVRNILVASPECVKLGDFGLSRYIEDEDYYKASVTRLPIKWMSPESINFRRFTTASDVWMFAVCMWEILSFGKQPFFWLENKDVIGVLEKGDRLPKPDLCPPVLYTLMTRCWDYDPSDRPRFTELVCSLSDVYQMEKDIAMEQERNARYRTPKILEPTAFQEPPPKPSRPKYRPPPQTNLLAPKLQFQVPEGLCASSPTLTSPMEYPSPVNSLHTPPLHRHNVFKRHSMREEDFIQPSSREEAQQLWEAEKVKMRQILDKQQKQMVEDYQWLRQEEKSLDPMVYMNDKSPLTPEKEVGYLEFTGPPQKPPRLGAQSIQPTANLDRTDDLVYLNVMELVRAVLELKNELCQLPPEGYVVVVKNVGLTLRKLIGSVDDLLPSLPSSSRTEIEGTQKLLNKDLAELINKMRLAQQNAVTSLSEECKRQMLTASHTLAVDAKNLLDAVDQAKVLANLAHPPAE
Sequence of Tyrosine-protein kinase CSK (Homo sapiens) (P41240 2-450 limits assumed): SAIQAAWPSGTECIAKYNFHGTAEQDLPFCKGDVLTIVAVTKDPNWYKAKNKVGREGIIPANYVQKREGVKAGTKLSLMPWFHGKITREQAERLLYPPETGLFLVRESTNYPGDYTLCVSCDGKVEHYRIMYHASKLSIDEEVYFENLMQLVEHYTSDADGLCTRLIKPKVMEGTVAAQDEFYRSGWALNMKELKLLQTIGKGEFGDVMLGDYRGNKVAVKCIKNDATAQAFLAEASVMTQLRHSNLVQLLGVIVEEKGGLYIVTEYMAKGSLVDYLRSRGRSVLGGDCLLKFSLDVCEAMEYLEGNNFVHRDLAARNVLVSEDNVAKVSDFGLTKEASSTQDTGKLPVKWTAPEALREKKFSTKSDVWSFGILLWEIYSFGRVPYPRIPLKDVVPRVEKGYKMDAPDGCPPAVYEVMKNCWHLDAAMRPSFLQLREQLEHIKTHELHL
Sequence of Ephrin type-A receptor 2 (Homo sapiens) (P29317 whole entry, the tested form may be a part): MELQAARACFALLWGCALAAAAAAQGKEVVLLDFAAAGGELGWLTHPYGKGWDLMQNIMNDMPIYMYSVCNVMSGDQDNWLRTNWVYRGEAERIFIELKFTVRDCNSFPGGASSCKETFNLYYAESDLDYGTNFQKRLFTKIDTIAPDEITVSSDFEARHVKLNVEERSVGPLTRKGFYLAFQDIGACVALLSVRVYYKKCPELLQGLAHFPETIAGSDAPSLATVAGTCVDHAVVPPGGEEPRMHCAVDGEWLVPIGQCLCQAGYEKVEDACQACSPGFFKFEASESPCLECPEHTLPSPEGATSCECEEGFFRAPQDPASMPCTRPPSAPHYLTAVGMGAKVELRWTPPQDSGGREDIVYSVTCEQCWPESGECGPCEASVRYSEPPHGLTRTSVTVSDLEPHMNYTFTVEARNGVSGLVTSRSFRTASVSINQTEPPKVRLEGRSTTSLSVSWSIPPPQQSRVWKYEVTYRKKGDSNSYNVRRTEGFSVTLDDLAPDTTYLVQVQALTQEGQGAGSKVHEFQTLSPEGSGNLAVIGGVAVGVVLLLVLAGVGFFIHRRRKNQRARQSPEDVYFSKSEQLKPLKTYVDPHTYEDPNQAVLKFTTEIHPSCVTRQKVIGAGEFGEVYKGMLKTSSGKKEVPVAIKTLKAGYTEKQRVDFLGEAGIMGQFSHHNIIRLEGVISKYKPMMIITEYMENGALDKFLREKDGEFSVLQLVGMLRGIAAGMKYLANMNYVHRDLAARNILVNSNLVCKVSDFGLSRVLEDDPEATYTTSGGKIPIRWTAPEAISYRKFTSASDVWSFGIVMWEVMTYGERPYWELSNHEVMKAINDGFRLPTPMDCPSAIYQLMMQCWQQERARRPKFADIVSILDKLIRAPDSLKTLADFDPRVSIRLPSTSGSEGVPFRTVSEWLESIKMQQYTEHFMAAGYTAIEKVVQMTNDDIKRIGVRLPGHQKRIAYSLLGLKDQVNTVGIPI
Sequence of Mitogen-activated protein kinase 1 (Homo sapiens) (P28482 whole entry, the tested form may be a part): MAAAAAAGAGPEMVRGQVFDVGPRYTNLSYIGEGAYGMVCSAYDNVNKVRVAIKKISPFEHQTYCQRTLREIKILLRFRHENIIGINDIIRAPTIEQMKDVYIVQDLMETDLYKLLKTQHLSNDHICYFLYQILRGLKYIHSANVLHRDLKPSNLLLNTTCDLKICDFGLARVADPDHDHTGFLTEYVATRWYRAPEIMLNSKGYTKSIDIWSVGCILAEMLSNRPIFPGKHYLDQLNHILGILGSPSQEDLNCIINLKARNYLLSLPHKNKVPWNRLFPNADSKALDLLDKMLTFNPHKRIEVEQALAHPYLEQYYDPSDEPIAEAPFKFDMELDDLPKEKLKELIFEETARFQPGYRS
Sequence of Platelet-derived growth factor receptor alpha (Homo sapiens) (P16234 whole entry, the tested form may be a part): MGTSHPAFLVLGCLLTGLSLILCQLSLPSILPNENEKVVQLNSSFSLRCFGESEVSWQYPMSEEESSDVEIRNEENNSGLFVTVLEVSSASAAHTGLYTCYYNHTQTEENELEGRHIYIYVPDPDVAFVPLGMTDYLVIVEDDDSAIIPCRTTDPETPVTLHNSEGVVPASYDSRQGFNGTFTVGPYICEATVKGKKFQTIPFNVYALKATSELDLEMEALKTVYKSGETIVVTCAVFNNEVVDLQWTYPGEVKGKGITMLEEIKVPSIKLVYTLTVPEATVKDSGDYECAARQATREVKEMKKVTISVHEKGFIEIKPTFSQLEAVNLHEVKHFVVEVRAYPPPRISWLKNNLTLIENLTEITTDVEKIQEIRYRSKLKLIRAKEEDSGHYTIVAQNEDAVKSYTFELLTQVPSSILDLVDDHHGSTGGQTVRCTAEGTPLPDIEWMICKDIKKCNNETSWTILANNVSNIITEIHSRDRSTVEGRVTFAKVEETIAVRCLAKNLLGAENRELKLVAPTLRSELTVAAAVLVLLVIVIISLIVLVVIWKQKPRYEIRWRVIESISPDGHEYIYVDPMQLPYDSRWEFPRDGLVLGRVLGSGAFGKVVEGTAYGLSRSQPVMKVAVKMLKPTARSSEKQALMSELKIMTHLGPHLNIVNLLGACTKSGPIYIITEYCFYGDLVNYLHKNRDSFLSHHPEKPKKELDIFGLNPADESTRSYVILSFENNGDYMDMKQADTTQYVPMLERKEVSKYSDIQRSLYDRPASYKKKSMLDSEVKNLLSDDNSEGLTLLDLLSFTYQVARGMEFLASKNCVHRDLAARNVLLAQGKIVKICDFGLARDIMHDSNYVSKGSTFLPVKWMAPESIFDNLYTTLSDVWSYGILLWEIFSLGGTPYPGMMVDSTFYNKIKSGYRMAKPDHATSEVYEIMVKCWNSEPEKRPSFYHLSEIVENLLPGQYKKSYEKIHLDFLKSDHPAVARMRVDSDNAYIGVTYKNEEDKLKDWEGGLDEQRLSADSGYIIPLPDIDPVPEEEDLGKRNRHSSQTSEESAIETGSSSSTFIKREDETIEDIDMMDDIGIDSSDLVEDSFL
Sequence of RAC-alpha serine/threonine-protein kinase (Homo sapiens) (P31749 whole entry, the tested form may be a part): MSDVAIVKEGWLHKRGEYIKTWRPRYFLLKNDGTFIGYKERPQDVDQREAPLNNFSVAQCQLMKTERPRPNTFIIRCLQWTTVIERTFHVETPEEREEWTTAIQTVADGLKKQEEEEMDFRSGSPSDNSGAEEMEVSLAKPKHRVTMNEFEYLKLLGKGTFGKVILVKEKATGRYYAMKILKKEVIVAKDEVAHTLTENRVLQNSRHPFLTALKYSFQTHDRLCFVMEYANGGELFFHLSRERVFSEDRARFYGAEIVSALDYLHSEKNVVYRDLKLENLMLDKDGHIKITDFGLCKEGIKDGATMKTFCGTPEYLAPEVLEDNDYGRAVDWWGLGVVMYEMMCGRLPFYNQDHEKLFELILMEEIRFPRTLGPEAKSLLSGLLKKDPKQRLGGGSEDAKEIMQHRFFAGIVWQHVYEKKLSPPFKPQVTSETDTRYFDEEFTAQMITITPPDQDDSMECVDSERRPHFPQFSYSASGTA

| SMILES | inhibition [1] [%] | inhibition [2] [%] | inhibition [3] [%] | inhibition [4] [%] | inhibition [5] [%] | inhibition [6] [%] | inhibition [7] [%] | inhibition [8] [%] | inhibition [9] [%] | inhibition [10] [%] | inhibition [11] [%] |
| --- | --- | --- | --- | --- | --- | --- | --- | --- | --- | --- | --- |
| O=C(Nc1ccc(CN2CCN(c3ccccc3)CC2)cc1)c1n[nH]c2ccccc12 | -4.3 | 8.3 | 14.2 | 1.7 | 0.6 | 0.9 | -3.3 | -2.1 | -2.8 | 9.8 | 3.6 |
| O=C(Nc1ccc(C(=O)N2CCN(c3ccccc3)CC2)cc1)c1n[nH]c2ccccc12 | -5 | 13 | 34.9 | 0.1 | 1.3 | -1.6 | -1.1 | -0.8 | 1.9 | 47.2 | 9.3 |
| O=C(Nc1ccccc1)c1n[nH]c2ccccc12 | -0.5 | 32.9 | 49.5 | 9.1 | 0.7 | 0.6 | -2.4 | 7 | -2.1 | 26.3 | 10.6 |

Source: ChEMBL document CHEMBL3792292, “Development of a potent and selective FLT3 kinase inhibitor by systematic expansion of a non-selective fragment-screening hit” (Bioorg Med Chem Lett, 2016)
